Data reported in PMC5031999, “Structure and catalytic mechanism of monodehydroascorbate reductase, MDHAR, from Oryza sativa L. japonica” (Scientific Reports, 2016).

Columns and labels:
Format in all cases: binding
OsMDHAR [1] = target: T1, OsMDHAR (Oryza sativa, UniProt Q652L6); assay: X-ray crystal structure, […] Å; conditions: co-purified FAD, one per monomer; NAD-free crystal
T1 construct: gene MDAR3; amplified from rice cDNA; monomer by size exclusion

OsMDHAR [2] = target: T2, OsMDHAR (Oryza sativa, UniProt Q652L6, E196A); assay: isothermal titration calorimetry; conditions: text names both NADH and NAD for the titrated ligand
T2 construct: gene MDAR3; amplified from rice cDNA; monomer by size exclusion

OsMDHAR [3] = target: T1, OsMDHAR; assay: isothermal titration calorimetry; conditions: text names both NADH and NAD for the titrated ligand
OsMDHAR [4] = target: T2, OsMDHAR; assay: X-ray crystal structure, […] Å; conditions: crystal soaked with 50 mM NADPH until colourless; FAD bound
OsMDHAR [5] = target: T3, OsMDHAR (Oryza sativa, UniProt Q652L6, Y349F); assay: X-ray crystal structure, […] Å; conditions: crystal soaked with 10 mM NADH, then ISD; quaternary complex with FAD and ISD
T3 construct: gene MDAR3; amplified from rice cDNA; monomer by size exclusion
T3 sequence (Q652L6 whole entry Y349F): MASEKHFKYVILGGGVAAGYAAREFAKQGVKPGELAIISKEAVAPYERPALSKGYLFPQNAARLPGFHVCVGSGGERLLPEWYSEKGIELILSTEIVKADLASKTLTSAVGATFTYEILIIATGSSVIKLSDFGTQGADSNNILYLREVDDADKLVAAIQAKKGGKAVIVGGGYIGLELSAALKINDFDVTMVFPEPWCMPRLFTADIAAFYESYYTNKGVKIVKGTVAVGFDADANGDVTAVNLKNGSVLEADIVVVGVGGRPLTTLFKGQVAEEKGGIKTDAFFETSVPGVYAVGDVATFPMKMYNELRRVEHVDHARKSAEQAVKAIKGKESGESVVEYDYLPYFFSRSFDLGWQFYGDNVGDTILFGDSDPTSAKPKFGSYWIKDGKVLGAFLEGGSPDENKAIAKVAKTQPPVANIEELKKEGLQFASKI

T1 sequence (Q652L6 whole entry): as the sequence (Q652L6 whole entry Y349F) above, with F349Y counted along it
T2 sequence (Q652L6 whole entry E196A): as the sequence (Q652L6 whole entry Y349F) above, with E196A, F349Y counted along it

Cc1cc2nc3c(=O)[nH]c(=O)nc-3n(C[C@H](O)[C@H](O)[C@H](O)COP(=O)(O)OP(=O)(O)OC[C@H]3O[C@@H](n4cnc5c(N)ncnc54)[C@H](O)[C@@H]3O)c2cc1C [FAD]
X-ray crystal structure, 1.7 Å (OsMDHAR [1]): All four structures contain one molecule of FAD per monomer

NC(=O)C1=CN([C@@H]2O[C@H](COP(=O)(O)OP(=O)(O)OC[C@H]3O[C@@H](n4cnc5c(N)ncnc54)[C@H](O)[C@@H]3O)[C@@H](O)[C@H]2O)C=CC1 [NADH]
binding affinity (OsMDHAR [2]): there is no difference between WT and E196A in NAD binding affinity
binding affinity (OsMDHAR [3]): we measured the binding affinity of wild type (WT) and E196A for NADH and NADPH

NC(=O)c1ccc[n+]([C@@H]2O[C@H](COP(=O)(O)OP(=O)(O)OC[C@H]3O[C@@H](n4cnc5c(N)ncnc54)[C@H](OP(=O)(O)O)[C@@H]3O)[C@@H](O)[C@H]2O)c1 [NADP]
X-ray crystal structure, 1.8 Å (OsMDHAR [4]): the structure of the E196A mutant-NADP complex revealed

NC(=O)c1ccc[n+]([C@@H]2O[C@H](COP(=O)(O)OP(=O)(O)OC[C@H]3O[C@@H](n4cnc5c(N)ncnc54)[C@H](O)[C@@H]3O)[C@@H](O)[C@H]2O)c1 [NAD]
X-ray crystal structure, 1.9 Å (OsMDHAR [5]): We also determined quaternary complex structures with FAD, NAD, and AsA or ISD
